We go through 18 compounds from patent US12005127B2, “DNA-PK inhibitors” (VERTEX PHARMACEUTICALS INCORPORATED, priority 2018, dated 2024).

Some results are limits rather than exact numbers.

Assay [1] has as its target T1, DNA-PK (Homo sapiens, UniProt P78527). In words: DNA-PK cellular assay (pDNA-PK Ser2056 sandwich ELISA, NCS-induced DSBs). The class given is cell-based. The arrangement: endogenous in cells; host or cells: A549 (human NSCLC). Particulars: pDNA-PK (Ser2056) in A549 cells, NCS 50 ng/ml, 15 minutes. From the text: DNA-PK is recruited to and activated by double-strand breaks (DSB) in DNA and plays a critical role in the non-homologous end-joining (NHEJ) repair mechanism. Upon activation, DNA-PK undergoes rapid autophosphorylation at Ser2056. The measure of pDNA-PK (Ser2056) in response to DNA DSBs provides a cellular signaling assay to evaluate potential DNA-PK kinase inhibitors.
Neocarzinostatin (NCS) was used as a radiomimetic to induce DNA DSBs. The sandwich ELISA used the Meso Scale Discovery electrochemiluminescence technology platform which typically provides greater sensitivity than traditional ELISA formats.
A549 (human NSCLC) cells are plated at 25,000 cells/well in 100 uL of DMEM (Invitrogen cat #11995-040) supplemented with 1% Pen/Strep (Invitrogen cat #15070-063) and 10% FBS (Hyclone cat #SH30071.03HI) on black clear bottom 96 well plates (Costar #3904) and allowed to adhere overnight at 37° C. in 5% CO2. The following day, the compounds and NCS solutions are prepared by adding 100 ul of DMEM growth media per well in a Corning polypropylene V-bottom deep well plate (cat #3357). The HP Compound Dilution D300 instrument was used to add compounds to the appropriate wells using the setting logarithmic and 16-point titration singlet.
The DMEM NCS solution was prepared by adding NCS to DMEM media at 200 ng/ml (final assay concentration, 50 ng/ml). 100 ul of the DMEM/NCS solution is added to the wells with the compounds. 100 ul of this solution is then immediately added to the A549 cells. The cells are then incubated for 15 minutes at 37° C.
The complete lysis buffer is prepared by adding 1% Phosphatase inhibitor (Sigma cat #P2850) and 1% Protease Inhibitor (Sigma cat #P8340) to the Lanthascreen cellular assay lysis buffer (Invitrogen cat #PV5598). The media from the plate was removed by flicking and patting dry. 60 uL/well of the complete lysis buffer is added to each well. These plates are then incubated for at least 5 minutes in the lysis buffer at room temperature to ensure complete lysis. At this point the lysates can be transferred to prepared ELISA plates.
The prepared ELISA plates were prepared blocking the Mesoscale Goat-Anti-Mouse (GAM) plates with 150 uL/well of 3% Blocker A (Mesoscale cat #R93-BA) for one hour at room temperature with shaking. The capture antibody is prepared by diluting the mouse monoclonal anti-total DNA-PK (AbCAM cat #ab1832) to 3 ug/mL in 1% Blocker A. The blocked plates rinsed once with 200 uL D-PBS. The capture antibody (25 ul/well) was added to each well and allowed to incubate for an hour at room temperature while shaking. This was rinsed once with 200 ul D-PBS before adding 25 uL of the prepared cell lysate from the cell plates to the Mesoscale GAM ELISA plate. The lysate is then incubated on the plates for one hour at room temperature with shaking. The detection antibody (Epitomics rabbit anti-pS2056-DNA-PK) is prepared at a 1/1000 dilution (to a final concentration of 450 ng/mL) in 1% Blocker A. The GAM plates are washed once with 200 uL of D-PBS and then 25 uL/well of the detection antibody is added to the plate. This incubates for one hour at room temperature with shaking. The Sulfotag is prepared by adding Sulfo-Tag Goat-Anti-Rabbit antibody (Mesoscale cat #R32AB-1) at a 1/500 dilution (1 ug/mL) to 1% Blocker A. The GAM plates are washed with 200 uL of D-PBS and then 25 uL of the Sulfotag preparation is added to each well. Once the plates have been incubated with the final solution, the Sulfotag, for 1 hour, they are washed once with 200 uL of D-PBS. The 1× Read Buffer (Mesoscale cat #R32-TC) is made by diluting the 4× buffer in ddH20. 150 uL of 1× buffer is added to each well of the GAM plate and then the plate is read on the Sector Imager 2400. The readout (electrochemiluminescence) was plotted against the concentration of each compound and the IC50s were generated using Prism software (GraphPad Prism version 6.0e for Macintosh). […]

For assay [2], the target named is T1, DNA-PK. The assay can be described thus: DNA-PK inhibition assay (radiometric 33P-ATP kinase assay). The class given is biochemical. Particulars: competitive tight-binding fit. How it is done: Compounds were screened for their ability to inhibit DNA-PK kinase using a standard radiometric assay. Briefly, in this kinase assay the transfer of the terminal ^33P-phosphate in ^33P-ATP to a peptide substrate is interrogated. The assay was carried out in 384-well plates to a final volume of 50 μL per well containing approximately 6 nM DNA-PK, 50 mM HEPES (pH 7.5), 10 mM MgCl2, 25 mM NaCl, 0.01% BSA, 1 mM DTT, 10 μg/mL sheared double-stranded DNA (obtained from Sigma), 0.8 mg/mL DNA-PK peptide (Glu-Pro-Pro-Leu-Ser-Gln-Glu-Ala-Phe-Ala-Asp-Leu-Trp-Lys-Lys-Lys, obtained from American Peptide), and 100 μM ATP. Accordingly, compounds of the invention were dissolved in DMSO to make 10 mM initial stock solutions. Serial dilutions in DMSO were then made to obtain the final solutions for the assay. A 0.75 μL aliquot of DMSO or inhibitor in DMSO was added to each well, followed by the addition of ATP substrate solution containing ^33P-ATP (obtained from Perkin Elmer). The reaction was started by the addition of DNA-PK, peptide and ds-DNA. After 45 min, the reaction was quenched with 25 μL of 5% phosphoric acid. The reaction mixture was transferred to MultiScreen HTS 384-well PH plates (obtained from Millipore), allowed to bind for one hour, and washed three times with 1% phosphoric acid. Following the addition of 50 μL of Ultima Gold™ high efficiency scintillant (obtained from Perkin Elmer), the samples were counted in a Packard TopCount NXT Microplate Scintillation and Luminescence Counter (Packard BioScience). The Ki values were calculated using Microsoft Excel Solver macros to fit the data to the kinetic model for competitive tight-binding inhibition. In Tables 1 and 2 below, Ki of less than 0.001 micromolar for the inhibition of DNA-PK is indicated as “A”; Ki of equal to or greater than 0.001 micromolar and less than 0.01 micromolar for the inhibition of DNA-PK as “B”; Ki of equal to or greater than 0.01 micromolar and less than 0.1 micromolar for the inhibition of DNA-PK as “C”; Ki of equal to or greater than 0.1 micromolar and less than 1 micromolar for the inhibition of DNA-PK for “D”; and Ki of equal to or greater than 1 micromolar as “E.”

Take `c1ncc2c(O[C@H]3CC[C@@H](Nc4ncnc5ccoc45)CC3)cc(N3CCOCC3)cc2n1` [Compound 17, N-[4-(7-morpholinoquinazolin-5-yl)oxycyclohexyl]furo[3,2-d]pyrimidin-4-amine]: the IC50 against DNA-PK [1] (Table 1) is below 100 nM. The same compound came in with a Ki at DNA-PK [2] (Table 1, 100 μM ATP) below 0.001 µM.
`CN1CCN(c2nccc(N[C@H]3CC[C@@H](Oc4cc(N5CCOCC5)cc5ncncc45)CC3)n2)CC1` [Compound 18, 2-(4-methylpiperazin-1-yl)-N-[4-(7-morpholinoquinazolin-5-yl)oxycyclohexyl]pyrimidin-4-amine] came in with an IC50 on DNA-PK [1] (Table 1) below 100 nM. At DNA-PK [2] (Table 1, 100 μM ATP), this compound returned a Ki below 0.001 µM.
Compound `O=C(N[C@H]1CC[C@@H](Oc2cc(N3CCOCC3)cc3ncncc23)CC1)C1CC1` [Compound 16, N-[4-(7-morpholinoquinazolin-5-yl)oxycyclohexyl]cyclopropanecarboxamide] came in with an IC50 on DNA-PK [1] (Table 1) below 100 nM. For the same compound, on DNA-PK [2] (Table 1, 100 μM ATP), the Ki was below 0.001 µM.
Compound `c1cnc(O[C@H]2CC[C@@H](Oc3cc(N4CCOCC4)cc4ncncc34)CC2)nc1` [Compound 27, 4-[5-cis-(4-pyrimidin-2-yloxycyclohexoxy)quinazolin-7-yl]morpholine] registered a half-inhibitory concentration (IC50) against DNA-PK [1] (Table 1) below 100 nM.
At DNA-PK [1] (Table 1), `Cc1nccc(N[C@H]2CC[C@@H](Oc3cc(N4CCOCC4)cc4nc(C)ncc34)CC2)n1` [Compound 12, 2-methyl-N-[4-(2-methyl-7-morpholino-quinazolin-5-yl)oxycyclohexyl]-pyrimidin-4-amine] displayed an IC50 of 100 to 1000 nM. The Ki on DNA-PK [2] (Table 1, 100 μM ATP) is 0.001 to 0.01 µM.
`Cc1nccc(N[C@H]2CC[C@@H](Oc3cc(N4CCOCC4)cc4ncn(C)c(=O)c34)CC2)n1` [Compound 21, 3-methyl-5-[4-[(2-methylpyrimidin-4-yl)amino]cyclohexoxy]-7-morpholino-quinazolin-4-one] displayed an IC50 against DNA-PK [1] (Table 1) of 100 to 1000 nM.
On DNA-PK [1] (Table 1), `COc1ncnc2cc(N3CCOCC3)cc(O[C@H]3CC[C@@H](Nc4nc(C)nc5c4OCC5)CC3)c12` [Compound 5, N-[4-(4-methoxy-7-morpholino-quinazolin-5-yl)oxycyclohexyl]-2-methyl-6,7-dihydrofuro[3,2-d]pyrimidin-4-amine] gave an IC50 below 100 nM. For the same compound, at DNA-PK [2] (Table 1, 100 μM ATP), the Ki was below 0.001 µM.
On to `Cc1nccc(N[C@H]2CC[C@@H](Oc3cc(N4CCOCC4)cc4ncnc(C#N)c34)CC2)n1` [Compound 4, 5-[4-[(2-methylpyrimidin-4-yl)amino]cyclohexoxy]-7-morpholino-quinazoline-4-carbonitrile], for which, at DNA-PK [1] (Table 1), the IC50 is below 100 nM. Further, at DNA-PK [2] (Table 1, 100 μM ATP), the inhibition constant (Ki) is below 0.001 µM.
`COc1ccc(COc2cc(N3CCOCC3)cc3ncnc(C4CC4)c23)cc1` [Compound 56, 4-[4-cyclopropyl-5-[(4-methoxyphenyl)methoxy]quinazolin-7-yl]morpholine]: the IC50 against DNA-PK [1] (Table 2) was in the range of 100 to 1000 nM.
At DNA-PK [1] (Table 1), `CNC(=O)c1ccnc(N[C@H]2CC[C@@H](Oc3cc(N4CCOCC4)cc4ncnc(OC)c34)CC2)n1` [Compound 9, 2-[[4-(4-methoxy-7-morpholino-quinazolin-5-yl)oxycyclohexyl]amino]-N-methyl-pyrimidine-4-carboxamide] came in with an IC50 below 100 nM. This compound also yielded a Ki at DNA-PK [2] (Table 1, 100 μM ATP) below 0.001 µM.
Take `c1cnc(O[C@H]2CC[C@H](Oc3cc(N4CCOCC4)cc4ncncc34)CC2)nc1` [Compound 28, 4-[5-trans-(4-pyrimidin-2-yloxycyclohexoxy)quinazolin-7-yl]morpholine]: the IC50 against DNA-PK [1] (Table 1) was below 100 nM.
`Cc1ncc2c(O[C@H]3CC[C@@H](NC(=O)OC(C)(C)C)CC3)cc(N3CCOCC3)cc2n1` [Compound 10, tert-butyl N-[4-(2-methyl-7-morpholino-quinazolin-5-yl)oxycyclohexyl]carbamate]: at DNA-PK [1] (Table 1), the IC50 is at least 1000 nM. This compound also displayed a Ki at DNA-PK [2] (Table 1, 100 μM ATP) of 0.001 to 0.01 µM.
As for `COc1ccc(COc2cc(N3CCOCC3)cc3nc[nH]c(=O)c23)cc1` [Compound 51, 5-[(4-methoxyphenyl)methoxy]-7-morpholino-3H-quinazolin-4-one], the IC50 against DNA-PK [1] (Table 2) was at least 1000 nM. The same compound displayed a Ki on DNA-PK [2] (Table 2, 100 μM ATP) of 0.1 to 1 µM.
In turn, `COCC(=O)N[C@H]1CC[C@@H](Oc2cc(N3CCOCC3)cc3ncncc23)CC1` [Compound 20, 2-methoxy-N-((1s,4s)-4-((7-morpholinoquinazolin-5-yl)oxy)cyclohexyl)acetamide] showed an IC50 on DNA-PK [1] (Table 1) of at least 1000 nM. Besides, the Ki on DNA-PK [2] (Table 1, 100 μM ATP) was in the range of 0.001 to 0.01 µM.
For `Cn1cnc(C(=O)N[C@H]2CC[C@@H](Oc3cc(N4CCOCC4)cc4ncncc34)CC2)c1` [Compound 26, 1-methyl-N-((1s,4s)-4-((7-morpholinoquinazolin-5-yl)oxy)cyclohexyl)-1H-imidazole-4-carboxamide], the IC50 against DNA-PK [1] (Table 1) fell in the range of 100 to 1000 nM.
`CC1(C(=O)N[C@H]2CC[C@@H](Oc3cc(N4CCOCC4)cc4ncncc34)CC2)CC1` [Compound 23, 1-methyl-N-((1s,4s)-4-((7-morpholinoquinazolin-5-yl)oxy)cyclohexyl)cyclopropane-1-carboxamide] returned an IC50 on DNA-PK [1] (Table 1) below 100 nM. The Ki at DNA-PK [2] (Table 1, 100 μM ATP) is below 0.001 µM.
As for `CNC(=O)c1ccnc(N[C@H]2CC[C@@H](Oc3cc(N4CCOCC4)cc4ncn(C)c(=O)c34)CC2)n1` [Compound 25, N-methyl-2-[[4-(3-methyl-7-morpholino-4-oxo-quinazolin-5-yl)oxycyclohexyl]amino]pyrimidine-4-carboxamide], the IC50 against DNA-PK [1] (Table 1) was in the range of 100 to 1000 nM.
Take `COc1ccc(COc2cc(N3CCOCC3)cc3ncnc(Cl)c23)cc1` [Compound 54, 4-[4-chloro-5-[(4-methoxyphenyl)methoxy]quinazolin-7-yl]morpholine]: on DNA-PK [2] (Table 2, 100 μM ATP), the Ki was in the range of 0.01 to 0.1 µM.
